Experimental data from patent US12599672B2, “KRAS proteolysis targeting chimeras” (PAQ Therapeutics Inc., priority 2023, dated 2026).

What was measured:
KRAS G12V = molecular target: T1, KRAS G12V (Homo sapiens, UniProt P01116, G12V); assay: KRAS G12V HiBit assay; format: cell-based; details: SW620-KRAS (G12V)-HiBit-KI cells, compound treatment for 24 hours, class symbols
T1 construct: SW620-KRAS (G12V)-HiBit-KI cell (Pharmaron); host or cells: SW620-KRAS (G12V)-HiBit-KI cells (HiBiT knock-in at the endogenous KRAS locus)
Procedure: Day 1. […] Rinsed cultivated cells in T-75 flasks with 5 mL PBS (Solarbio, P1020-500). […] Inactivated trypsin by adding excessive serum containing medium. Harvested the cells from flask into cell culture medium and counted the cell number.
Day 2. Test compounds were dissolved at 0.3 mM in DMSO (Solarbio, D8371) as stock solution. […] Performed 3-fold, 10-points dilution via transferring 15 μL compound into 30 μL DMSO by using TECAN liquid handler (TECAN, Freedom EVO200). […] After compound treatment for 24 hours, the plate was removed from incubators and equilibrated at room temperature for 15 minutes. Prepare the HiBit reagent (Promega, N3040) by mixing 10 mL of Nano-Glo®-HiBiT Lytic Buffer with 200 μL of Nano-Glo®-HiBiT Lytic Substrate and 100 μL of LgBiT Protein. Added 20 μL of HiBit reagent into each well of the cell plate and spun the plates at room temperature at 1,000 RPM for 1 minute.
The degradation activity was calculated using the following formula:
[formula] where HC (high control) is obtained from cells treated with 0.1% DMSO only.

KRAS G12D = molecular target: T2, KRAS G12D (Homo sapiens, UniProt P01116, G12D); assay: KRAS G12D HiBit assay; format: cell-based; details: AsPc-1-KRAS (G12D)-HiBit-KI cell, compound treatment for 24 hours; for DC50: absolute DC50
T2 construct: AsPc-1-KRAS (G12D)-HiBit-KI cell (Pharmaron); host or cells: AsPc-1-KRAS (G12D)-HiBit-KI cells (HiBiT knock-in at the endogenous KRAS locus)
Outline: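 HiBiT luminescence, detected by adding lytic buffer, substrate and LgBiT protein, served as the KRAS G12D read-out. Compounds, serially diluted 3-fold over 10 points from 0.3 mM DMSO stock, were on cells for 24 h; percent inhibition normalized to cells given 0.1% DMSO only.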

[1] = numeric bounds given in place of class symbols

T2 sequence (P01116 1-188 isoform P01116-2 G12D): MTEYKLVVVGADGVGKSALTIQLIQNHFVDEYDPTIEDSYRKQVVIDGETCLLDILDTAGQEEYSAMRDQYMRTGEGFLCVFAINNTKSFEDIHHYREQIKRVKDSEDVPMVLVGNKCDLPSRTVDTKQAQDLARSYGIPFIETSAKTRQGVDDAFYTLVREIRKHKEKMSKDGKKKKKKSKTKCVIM
T1 sequence (P01116 1-188 isoform P01116-2 G12V): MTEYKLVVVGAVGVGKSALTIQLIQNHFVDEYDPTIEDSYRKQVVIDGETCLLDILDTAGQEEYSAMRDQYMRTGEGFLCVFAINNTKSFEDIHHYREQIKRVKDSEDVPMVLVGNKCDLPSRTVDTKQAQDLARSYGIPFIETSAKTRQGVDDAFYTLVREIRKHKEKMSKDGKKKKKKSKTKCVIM

SMILES	DC50 (KRAS G12V) [nM]	DC50 (KRAS G12D; class symbols) [nM]	Dmax (KRAS G12D; class symbols) [%]	DC50 (KRAS G12D; [1]) [nM]
CCc1c(F)ccc2cc(O)cc(-c3ncc4c(N5CCC[C@@](C)(O)C5)nc(OC[C@@]56CCCN5[C@H](CNC(=O)c5ccc(CN7CCC(c8ccc9c(c8)n(C)c(=O)n9C8CCC(=O)NC8=O)CC7)cc5F)CC6)nc4c3F)c12 (stereo partly drawn) [Compound 494, 4-((4-(1-(2,6-dioxopiperidin-3-yl)-3-methyl-2-oxo-2,3-dihydro-1H-benzo[d]imidazol-5-yl)piperidin-1-yl)methyl)-N-(((3S,7aS)-7a-(((7-(8-ethyl-7-fluoro-3-hydroxynaphthalen-1-yl)-8-fluoro-4-((R)-3-hydroxy-3-methylpiperidin-1-yl)pyrido[4,3-d]pyrimidin-2-yl)oxy)methyl)hexahydro-1H-pyrrolizin-3-yl)methyl)-2-fluorobenzamide]	10 to 100	< 100		
C#Cc1c(F)ccc2cc(O)cc(-c3ncc4c(N5CCC[C@@](C)(O)C5)nc(OCC5(CN6CCN(Cc7cccc8c7n(C)c(=O)n8C7CCC(=O)NC7=O)CC6)CC5)nc4c3F)c12 (stereo partly drawn) [Compound 63]	> 100	> 300		
C[C@H]1CN(CC(=O)N2CCC(CN3CCC(c4ccc5c(c4)n(C)c(=O)n5C4CCC(=O)NC4=O)CC3)CC2)CCCN1c1nccc(-c2noc([C@]3(C)CCCc4sc(N)c(C#N)c43)n2)n1 (stereo partly drawn) [Compound 211, (4R)-2-amino-4-(3-{2-[(2S)-4-{2-[4-({4-[1-(2,6-dioxopiperidin-3-yl)-3-methyl-2-oxo-1,3-benzodiazol-5-yl]piperidin-1-yl}methyl)piperidin-1-yl]-2-oxoethyl}-2-methyl-1,4-diazepan-1-yl]pyrimidin-4-yl}-1,2,4-oxadiazol-5-yl)-4-methyl-6,7-dihydro-5H-1-benzothiophene-3-carbonitrile]	> 100	> 300	< 15	
CCc1c(F)ccc2cc(O)cc(-c3ncc4c(N5CCC[C@@](C)(O)C5)nc(OC[C@@]56CCCN5[C@H](COC(=O)N5CCC(Oc7ccc(-c8ccc9c(c8)n(C)c(=O)n9C8CCC(=O)NC8=O)cc7)CC5)CC6)nc4c3F)c12 (stereo partly drawn) [Compound 496, ((3S,7aS)-7a-(((7-(8-ethyl-7-fluoro-3-hydroxynaphthalen-1-yl)-8-fluoro-4-((R)-3-hydroxy-3-methylpiperidin-1-yl)pyrido[4,3-d]pyrimidin-2-yl)oxy)methyl)hexahydro-1H-pyrrolizin-3-yl)methyl 4-(4-(1-(2,6-dioxopiperidin-3-yl)-3-methyl-2-oxo-2,3-dihydro-1H-benzo[d]imidazol-5-yl)phenoxy)piperidine-1-carboxylate]	> 100			> 100
C#Cc1c(F)ccc2cc(O)cc(-c3ncc4c(N5CCC[C@@](C)(O)C5)nc(OCC5(CN6CCN(Cc7ccc8c(c7)n(C)c(=O)n8C7CCC(=O)NC7=O)CC6)CC5)nc4c3F)c12 (stereo partly drawn) [Compound 42]	> 100	> 300		
Cn1c(=O)n(C2CCC(=O)NC2=O)c2cc(C3CCN(CC4CCN(C(=O)CN5CCN(c6nccc(-c7noc([C@@]8(C)CCCc9sc(N)c(C#N)c98)n7)n6)CC5)CC4)CC3)ccc21 (stereo partly drawn) [Compound 223]	> 100			> 231
CCc1c(F)ccc2cccc(-c3ncc4c(N5CCC[C@@](C)(O)C5)nc(OC[C@@]56CCCN5[C@H](COC(=O)NCCOc5ccc7c(c5)n(C)c(=O)n7C5CCC(=O)NC5=O)CC6)nc4c3F)c12 (stereo partly drawn) [Compound 111, ((3S,7aS)-7a-(((7-(8-ethyl-7-fluoronaphthalen-1-yl)-8-fluoro-4-((R)-3-hydroxy-3-methylpiperidin-1-yl)pyrido[4,3-d]pyrimidin-2-yl)oxy)methyl)hexahydro-1H-pyrrolizin-3-yl)methyl (2-((1-(2,6-dioxopiperidin-3-yl)-3-methyl-2-oxo-2,3-dihydro-1H-benzo[d]imidazol-5-yl)oxy)ethyl) carbamate]	> 100	> 300		
C#Cc1c(F)ccc2cc(O)cc(-c3ncc4c(N5CCCCCC5)nc(OCC5(CN6CCN(CC7CCN(c8ccc9c(c8)n(C)c(=O)n9C8CCC(=O)NC8=O)CC7)CC6)CC5)nc4c3F)c12 (stereo not drawn) [Compound 16]	> 100	< 100	> 50	
